Data: US5220042A, “1,4-benzoquinone derivatives and benzene derivatives, and process for preparing the same” (priority 1984, dated 1993)
Read-outs that look alike come from different tables or passages of the source.

Legend:
[1] = tested on: histamine release from lung fragments; assay: Inhibition of histamine release from sensitized guinea pig lung fragments; format: cell-based, guinea pig (Hartley strain); settings: Cavia porcellus, read-out: Inhibition ratio (%) Histamine; for inhibition at 3 µM: Table 2, dose 3 μM; for inhibition at 30 µM: Table 2, dose 30 μM
Method: Inhibitory activities on the release of SRS-A and histamine of the present compounds were determined.
A male guinea pig (Hartley strain) (body weight: about 300 g) was sensitized by a method according to P. Anderson: "Int. Archs. Allergey appln. Immunol., Vol. 64, pages 249-258 (1981). Thus, 30 mg/kg of cyclophosphamide was intraperitoneally administered to the guinea pig, and 2 days after 1 microgram of ovalbumin (manufactured by Sigma Chemical Co., St. Louis, Mo. U. S. A.) together with 10 mg of aluminium hydroxide gel were intraperitoneally administered so as to have the animal sesitized.
50 Days after the sesitization, the animal was killed by exsanguination, and the lung was isolated from the animal and was perfused with 20 ml of Tyrode's solution, then immersed in an ice-cooled Tyrode's solution. The parenchyma of the lung was cut by using McIlwain-type tissue chopper to make it into fragments of lung having 2 mm square and the fragments were washed with Tyrode's solution. 400 Milligrams of sectiles of lung were suspended in 3.6 ml of Tyrode's solution, and this suspension was preincubated at 37° C. for 5 minutes, then 4 microliters of dimethyl sulfoxide solution of the test compound, in the case of control 4 microliters of dimethyl sulfoxide alone was added to the suspension. 5 Minutes after, 0.4 ml of 100 micrograms/ml of ovalbumin solution added so as to release SRS-A for 10 minutes. The suspension was ice-cooled and filtered through gauze, the filtrate was centrifuged at 2,000 rpm for 10 minutes and the supernatant was collected. The supernatant was stored in freezed state at -80° C. until bio-assay was conducted.
Amounts of SRS-A and histamine contained in the supernatant were determined by bio-assay using ileum of guinea pig.
A piece of the ileum (2-3 cm of length) positioned from 15-25 cm from the opening portion of ileocecum was isolated from a male guinea pig (Hartley strain) (body weight: 400-600 g) which was fasted for 24 hours. The piece of ileum was hanged vertically in a Magnus tube which was filled with 10 ml of Tyrode's solution containing 10^-7 M of atropine sulfate under air stream conditions. The isotonic contraction of the piece of the ileum was measured at 0.5 g of load by using an isotonic transducer "TD-112S" (manufactured by Nihon Koden Co., Ltd.). The measurements were carried out after the reaction to histamine of the piece of ileum was kept constant. Bioassay of histamine was measured by using the value of contraction shown in 30 seconds after the addition of the supernatant. Bioassay of on SRS-A was measured by using the value of contraction shown at 2 minutes after the addition of the supernatant in the presence of 10^-6 M of pyrilamine (manufactured by Sigma Chemical Co.), and compared with the standard curve of crude SRS-A released from the fragments of the lung.

[2] = tested on: SRS-A release from lung fragments; assay: Inhibition of SRS-A release from sensitized guinea pig lung fragments; format: cell-based, guinea pig (Hartley strain); settings: Cavia porcellus
In short: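 Lung fragments from ovalbumin-sensitized male Hartley guinea pigs were preincubated 5 min at 37 °C in Tyrode's, given compound in DMSO for 5 min, then challenged with ovalbumin for 10 min. Released histamine was bioassayed by guinea pig ileum contraction at 30 s. SRS-A was read at 2 min with 10^-6 M pyrilamine against a crude SRS-A standard curve.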

[3] = tested on: SRS-A release on anaphylaxis in abdominal cavity; assay: SRS-A releasing inhibition test on anaphylaxis in abdominal cavity of rats; format: in vivo, rat (Sprague-Dawley strain); settings: oral, 3 hours before anaphylaxis; dose not given
Method: SRS-A and histamine releasing inhibition test on anaphylaxis in abdominal cavity of rats.
Male or female rats (Sprague-Dawley strain, delivered from Charles River, Japan Ltd., Tokyo) of 6-7 week age were used as the test animals. The test animals were devided into a group consisting of 6 animals in one group depending on their body weight. The animals were fasted overnight. The test was conducted by a method according to P. T. Orange et al.: "J. Immunol., Vol. 105", pages 1087-1095 (1970).
1 Milliliter each of twofold diluted anti-ovalbumin serm of rat was intraperitoneally injected to each of the test animal so as to have the rat sensitized. 2 Hours after the sensitization, 5 ml of Tyrode's solution containing 2 mg of ovalbumin and 250 micrograms of heparin sodium was intraperitoneally administered to the test animal to cause anaphylaxis. 5 Minutes after, the test animal was stunned by the blow on the head and was exsanguinated and killed by cervical incision. Additional 5 minutes later, the abdominal fluid was collected from the opening of the abdomen. The fluid collected was centrifuged at 4° C., first at 800 rpm, then at 2,500 rpm and the supernatant was collected, and stored at -80° C. until the bioassay was conducted. […]
The amount of SRS-A and histamine contained in the collected abdominal fluid was measured by a method similar to that employed in Pharmacological test-2.
Bio-assay of the collected abdominal fluid was conducted by using ileum of guinea pig which was treated with atropine. […] The isotonic contraction of the piece of the ileum was measured at 0.5 g of load by using an isotonic transducer "TD-112S" (manufactured by Nihon Koden Co., Ltd.). The measurements were recorded on an ink-writing recorder.
The amount of SRS-A was measured by using the value of contraction shown after the addition of 0.2-0.5 ml of the collected fluid in the presence of 10^-7 M of pyrilamine (antihistaminic agent), said value of the contraction was calculated as contraction activity caused by 5 ng of histamine. […]

[4] = Table 2, dose 3 μM, read-out: Inhibition ratio (%) SRS-A
[5] = Table 2, dose 30 μM, read-out: Inhibition ratio (%) SRS-A
[6] = Table 2B, 3 μM, read-out: Inhibitory activities on SRS-A (%)
[7] = Table 2B, 30 μM, read-out: Inhibitory activities on SRS-A (%)

SMILES: COC1=CC(=O)C(OC)=C(CCCCCC2=C(OC)C(=O)C=C(OC)C2=O)C1=O [Test Compound No. 9, 2,2'-Pentamethylenebis(3,6-dimethoxy-1,4-benzoquinone)]
- inhibition at 3 µM [1]: -15%
- inhibition at 30 µM [1]: 4.1%
- inhibition at 3 µM [2, 4]: 50.3%
- inhibition at 30 µM [2, 5]: > 94.8%
- inhibition at 3 µM [2, 6]: 50.3%
- inhibition at 30 µM [2, 7]: 94.2%
- Inhibitory rate (%) SRS-A [3]: 4.9%

SMILES: COC1=CC(=O)C(OC)=C(CCCCCCCCCC2=C(OC)C(=O)C=C(OC)C2=O)C1=O [Test Compound No. 13, 2,2'-Nonamethylenebis(3,6-dimethoxy-1,4-benzoquinone)]
- inhibition at 3 µM [1]: -2.7%
- inhibition at 30 µM [1]: -14.9%
- inhibition at 3 µM [2, 4]: 22.4%
- inhibition at 30 µM [2, 5]: 43.9%
- inhibition at 3 µM [2, 6]: 22.4%
- inhibition at 30 µM [2, 7]: 43.9%
- Inhibitory rate (%) SRS-A [3]: 25.8%

SMILES: COC1=CC(=O)C(OC)=C(CCCCCC#CCCCCCC2=C(OC)C(=O)C=C(OC)C2=O)C1=O [Test Compound No. 16, 2,2'-(6-Dodecynylene)bis(3,6-dimethoxy-1,4-benzoquinone)]
- inhibition at 3 µM [2, 4]: 23.4%
- inhibition at 30 µM [2, 5]: 43.9%
- inhibition at 3 µM [2, 6]: 23.4%
- inhibition at 30 µM [2, 7]: 43.9%
- Inhibitory rate (%) SRS-A [3]: 15.5%
